Columns and labels:
[1] = tested on: HPAF-II (pancreatic) tumor cells; assay: MTT cell viability assay with HPAF-II pancreatic tumor cells; assay type: cell-based, human
Experimental: MTT Cell Viability Assay with HPAF-II (Pancreatic) Tumor Cells—
10 mM of COMPOUND A stock solution was made by dissolving the 8.2 mg of powder form of COMPOUND A in 1.468 mL of DMSO to form the stock solution. The stock solution was aliquoted to 0.6 mL microcentrifuge tubes with 20 μl of solution in each microcentrifuge tube.
Pancreatic cancer cell line HPAF-II was seeded in a 96-well plate with 5000 cells/well and incubated overnight at 37° C. The next day, cells were treated triplicate by removing cell media and replaced with fresh media containing COMPOUND A alone at increasing concentrations (10 μM, 20 μM, 20 μM, 50 μM, 75 μM, 100 μM 125 μM 150 μM, 175 μM 200 μM) as well as the combination of the 10 μM of COMPOUND A and Gemcitabine at increasing concentrations (0 μM, 0.01 μM, 0.05 μM, 0.1 μM, 0.5 μM, 1 μM, 5 μM, 10 μM). Drug vehicle (DMSO, Sigma) was used as a control for the treatment. Cells were then left to grow in the presence of the drugs for the following 72 hours.
After 72 hours, the media was discarded and the cells were incubated with MTT (3-(4,5-Dimethylthiazol-2-yl)-2,5-diphenyltetrazolim bromide) solution (5 mg/ml stock) at working concentration of 0.5 mg/ml in fresh cell growth media for 2 hours at 37° C. The reaction was stopped when the majority of the cells was stained. MTT solution was then aspirated and the plate was left to dry for several hour. Stained cells were then resuspended in 70 μl of DMSO and mixed well. The absorbance was read with the use of a plate reading spectrophotometer at the 570 nm. The CompuSyn data for the drug combination of COMPOUND A and Gemcitabine in each cell line was generated and analysed using the CompuSyn software which was set up by […] and published by ComboSyn, Inc.

phospho-ERK = assay: Western blot of ERK phosphorylation in HPAF-11 pancreatic tumor cells; assay type: cell-based, human; conditions: HPAF-11 cells, 48 hours, DMEM 10% FBS, western blot (FIG. 3)
Experimental: Cells were treated for 48 hours with indicated concentrations of COMPOUND A in DMEM containing 10% FBS. Phosphorylation of ERK was assessed by western blot using antibodies that detect total and phospho-ERK. Actin detection was used as a loading control for total lysate protein.

[2] = tested on: MKN1 (gastric) tumor cells; assay: CELLTITER-GLO cell viability assay, MKN1; assay type: cell-based, human
Experimental: (§1) CELLTITER-GLO® Cell Viability Assay (a homogeneous method of determining the number of viable cells in culture based on quantitation of the ATP present, an indicator of metabolically active cells)
(§2) MKN1 (gastric), PC3 (prostate), NCIH727 (lung), and HCT116 (colorectal) tumor cell lines; Control=0.1% DMSO
(§3) To prepare 10 mM FL41 stock from powder dissolve 4.1 mg of FL41 powder into 0.74 ml DMSO-aliquot and store at −20 C until use DMSO-stock from Sigma or other suitable vendor-must be reagent or ACS grade or better.
(§4) Place 5000 cells per well (200 ul) in duplicate in their preferred media as shown in 96-well plate diagram immediately below. Reduce the final FBS (serum) concentration to 5% before adding cells to media. Incubate cells overnight and then remove old media carefully and add fresh media with 5% FBS and then either add DMSO alone, COMPOUND A alone or in combination with GEM (gemcitabine) in wells where noted at the final concentrations noted. Incubate the cells at 37 C in CO2 incubator for an additional 72 hours in presence of compounds. At the end of the 72-hour period add Promega Titerglo reagent to the wells and then measure luminescence to assess relative cell number.

[3] = tested on: HCT116 (colorectal) tumor cells; assay: CELLTITER-GLO cell viability assay, HCT116; assay type: cell-based, human; conditions: COMPOUND A alone, 72 hours, 5% FBS (FIG. 6)
Experimental: as §1, §2, §3, §4

[4] = tested on: NCIH727 (lung) tumor cells; assay: CELLTITER-GLO cell viability assay, H727; assay type: cell-based, human
Experimental: as §1, §2, §3, §4

[5] = tested on: PC3 (prostate) tumor cells; assay: CELLTITER-GLO cell viability assay, PC3; assay type: cell-based, human; conditions: COMPOUND A alone, 72 hours, 5% FBS
Experimental: as §1, §2, §3, §4

[6] = low, dose dependent; cited from earlier work

C=C(C)[C@@H]1CCC(C)=C[C@H]1c1c(O)cc(CCCCC)cc1OC(=O)N[C@@H](C)C(=O)N[C@@H](CCC(=O)O)C(=O)O [COMPOUND A]
growth of HPAFII (pancreatic) tumor cell line as compared to control ([1]; COMPOUND A alone): inhibit the growth
increase in rate of the cell kill vs Compound A or gemcitabine alone ([1]; HPAF-II, 10 μM COMPOUND A combined with gemcitabine, 72 hours (FIG. 2)): at least 10%
kill of the pancreatic tumor cells ([1]; HPAF-II, 50 μM, 72 hours, MTT (FIG. 1)): ≥ 50%
kill of the tumor cells ([1]; HPAF-II, about 175 μM, 72 hours, MTT (FIG. 1)): more than 80%
phospho-ERK levels in tumor cells as compared to control (phospho-ERK): effectively decrease phospho-ERK levels
growth of MKN1 (gastric) tumor cell line as compared to control ([2]; COMPOUND A alone, 72 hours, 5% FBS (FIG. 4)): inhibit the growth
effect on gemcitabine growth inhibition of human mkn1 gastric tumor cells ([2]; combination with gemcitabine, 72 hours (FIG. 5)): synergistic impact
growth of HCT116 (colorectal) tumor cell line as compared to control [3]: inhibit the growth
growth of H727 (lung) tumor cell line as compared to control ([4]; COMPOUND A alone, 72 hours, 5% FBS (FIG. 7)): inhibit the growth
effect on gemcitabine growth inhibition of human h727 lung tumor cells ([4]; combination with gemcitabine, 72 hours (FIG. 8)): potentiates
growth of PC3 (prostate) tumor cell line as compared to control [5]: inhibit the growth

C=C(C)[C@@H]1CCC(C)=C[C@H]1c1c(O)cc(CCCCC)cc1O [CBD, Cannabidiol]
oral and oromucosal bioavailability [6]: about 35%
